Target mRNA inhibition data for 38 sequences are collected here from the OligoGym collection.

The series concerns the target IRF4. The note with it: ASO.

Where “and” joins values, the source holds several entries; their conditions need not be identical. Equal entries are not always repeated. After the bases stand the sugars from the 5' end (letter, count) and the backbone: PS all phosphorothioate, else s phosphorothioate and o phosphodiester by linkage. Methylation of C is not given here. e = 2'-O-(2-methoxyethyl) (MOE); k = constrained ethyl (cEt); d = 2'-deoxy (DNA)

Regarding “CTGCTTGAGGTTTTCC (sugars k3 d9 k3 e1, PS)”, the target mRNA inhibition is 18% (MM.1R, 0.074 µM); 36% (MM.1R, 0.222 µM); 60% (MM.1R, 0.666 µM); 65% (MM.1R, 1 µM); 82% (MM.1R, 2 µM).

Regarding “CTGCTTGAGGTTTTCC (sugars kkdddddddddekeke, PS)”, the target mRNA inhibition (MM.1R, 1 µM) stood at 49%.

“CTGCTTGAGGTTTTCC (sugars kkdddddddddkekek, PS)”: the target mRNA inhibition (MM.1R, 1 µM) came to 30%.

CTGGATTGCTGATGTG (sugars k3 d10 k3, PS): the target mRNA inhibition reads like this: (MM.1R, 1 µM) 56% and 36%; (MM.1R, 4 µM) 83% and 71%.

With CTGGCCTGAAGCTTAG (sugars k3 d10 k3, PS), where the note is “MM.1R, 1 µM”, the target mRNA inhibition was 25%.

As to CTGTAACAGGCTATCA (sugars k3 d10 k3, PS), the target mRNA inhibition (SK-MEL-28, 4 µM) is 44%.

Consider CTGTATCATGCATACC (sugars k3 d10 k3, PS), for which the target mRNA inhibition (SK-MEL-28, 4 µM) worked out at 61%.

Turning to CTGTATTTATGCCCTC (sugars k3 d10 k3, PS), under “SK-MEL-28, 4 µM”, the target mRNA inhibition came to 60%.

For the sequence CTGTCACCTGGCAACC (sugars k3 d10 k3, PS), under “MM.1R, 1 µM”, the target mRNA inhibition was 11%.

For CTGTGTAATGTAGGGA (sugars k3 d10 k3, PS), where the note is “SK-MEL-28, 4 µM”, the target mRNA inhibition is 42%.

Regarding “CTGTTACCGATGCTTC (sugars k2 d9 e3 k2, PS)”, the target mRNA inhibition (MM.1R, 1 µM) was 64% and 56%.

Consider CTGTTACCGATGCTTC (sugars k3 d10 k3, PS), for which the target mRNA inhibition (MM.1R, 0.0625 µM) was found to be 18%; the target mRNA inhibition (MM.1R, 0.25 µM) came out at 36%; the target mRNA inhibition (MM.1R, 1 µM) was 56% and 55%; the target mRNA inhibition (MM.1R, 4 µM) worked out at 82%.

As for “CTGTTACCGATGCTTC (sugars kkdddddddddekeke, PS)”, the target mRNA inhibition (MM.1R, 1 µM) is 50% and 60%.

As to “CTGTTACCGATGCTTC (sugars kkdddddddddkdkdk, PS)”, under “MM.1R, 1 µM”, the target mRNA inhibition was 58% and 52%.

On to CTTAAGCAAGTGGAGG (sugars k3 d10 k3, PS), for which the target mRNA inhibition (SK-MEL-28, 4 µM) worked out at 70%.

As for CTTAGTCAGAATCTGT (sugars k3 d10 k3, PS), the target mRNA inhibition (MM.1R, 1 µM) stood at 1%.

On to CTTATTAGACTGACAG (sugars k3 d10 k3, PS), for which the target mRNA inhibition (SK-MEL-28, 4 µM) came to 41%.

Consider CTTATTTGTGGCTCAA (sugars k3 d10 k3, PS), for which the target mRNA inhibition (SK-MEL-28, 4 µM) was determined as 55%.

CTTCCCTGAGAAATGG (sugars k4 d8 k4, PS): the target mRNA inhibition (SK-MEL-28, 4 µM) is 36%.

For the sequence CTTCTTTATAGTAGGT (sugars k3 d10 k3, PS), the target mRNA inhibition (SK-MEL-28, 4 µM) was determined as 20%.

With CTTGGCAGGGAGCGGC (sugars k3 d10 k3, PS), the target mRNA inhibition (MM.1R, 1 µM) is 25%.

For CTTTATCAAGACAAGG (sugars k3 d10 k3, PS), where the note is “SK-MEL-28, 4 µM”, the target mRNA inhibition is 56%.

As for CTTTGGGCACCAAAAG (sugars k3 d10 k3, PS), the target mRNA inhibition (MM.1R, 1 µM) is -33%.

Consider GAAACGAGCCAGTGCA (sugars k3 d10 k3, PS), for which, for the setting “SK-MEL-28, 4 µM”, the target mRNA inhibition came out at 52%.

For GAAACGGCCTGGAGGT (sugars k3 d10 k3, PS), the target mRNA inhibition (MM.1R, 1 µM) was 17%.

Turning to GAAAGAGCTGGTAGGT (sugars k3 d10 k3, PS), the target mRNA inhibition (SK-MEL-28, 4 µM) stood at 0%.

GAAATAGCATCAGAGC (sugars k3 d10 k3, PS): the target mRNA inhibition (SK-MEL-28, 4 µM) is 45%.

With GAAATCACGAGGTTGC (sugars k3 d10 k3, PS), the target mRNA inhibition was -6% (MM.1R, 0.0625 µM); -3% (MM.1R, 0.074 µM); 16% (MM.1R, 0.222 µM); 9% (MM.1R, 0.25 µM); 22% (MM.1R, 0.666 µM); 32% (MM.1R, 1 µM). Also, the target mRNA inhibition is, setting by setting: (MM.1R, 2 µM) 52%; (MM.1R, 4 µM) 64%; (SK-MEL-28, 4 µM) 62%.

With GAAATGTGTTGGAAGA (sugars k3 d10 k3, PS), for the setting “SK-MEL-28, 4 µM”, the target mRNA inhibition stood at 68%.

With GAACAAAAGGTTCCCG (sugars k3 d10 k3, PS), the target mRNA inhibition (SK-MEL-28, 4 µM) was 18%.

In the case of GAACAAGTGTATCTTT (sugars k3 d10 k3, PS), where the note is “MM.1R, 1 µM”, the target mRNA inhibition was 5%.

As for GAACCACAAGCAGTGA (sugars k3 d10 k3, PS), the target mRNA inhibition (MM.1R, 1 µM) is -32%.

In the case of GAACCTGCTGGGCTGG (sugars k3 d10 k3, PS), where the note is “SK-MEL-28, 4 µM”, the target mRNA inhibition worked out at 36%.

On to GAACTAATGTCCCCAG (sugars k3 d10 k3, PS), for which the target mRNA inhibition (SK-MEL-28, 4 µM) came out at 61%.

On to GAAGAGTTGGCGGTGG (sugars k3 d10 k3, PS), for which the target mRNA inhibition (SK-MEL-28, 4 µM) amounted to 15%.

Take GAAGCATAGAACAGAT (sugars k3 d10 k3, PS): where the note is “SK-MEL-28, 4 µM”, the target mRNA inhibition worked out at 51%.

Turning to “GAAGCATTTTATCATC (sugars e1 k2 d9 k2 e2, PS)”, for the setting “MM.1R, 1 µM”, the target mRNA inhibition was found to be 1%.

As to “GAAGCATTTTATCATC (sugars k2 d9 e3 k2, PS)”, the target mRNA inhibition (MM.1R, 1 µM) amounted to 9%.
